According to ChEMBL document CHEMBL1137318, “Dipyridyl thiosemicarbazone chelators with potent and selective antitumor activity form iron complexes with redox activity” (J Med Chem, 2006):
The source made the active and inactive calls. No cut-off for these calls is given here.

Tests used:
[1] = Increase in Fe(3+)-mediated ascorbate oxidation at IBE of 3 relative to control; type: functional
[2] = Increase in Fe(3+)-mediated ascorbate oxidation at IBE of 1 relative to control; type: functional
[3] = Increase in Fe(2+)-mediated hydroxyl radical production measured as hydroxylation of benzoate at IBE of 3 relative to control; type: functional
[4] = Increase in Fe(2+)-mediated hydroxyl radical production measured as hydroxylation of benzoate at IBE of 1 relative to control; type: functional
Nucleic Acid = experiment: Binding affinity to DNA measured as hypochromicity of UV-vis spectra; type: nucleic-acid assay
[5] = Increase in Fe(3+)-mediated ascorbate oxidation at IBE of 0.1 relative to control; type: functional
SK-N-MC = experiment: Antiproliferative activity against human SK-N-MC cells after 96 hrs by MTT assay; type: functional, cell-based
[6] = Inhibition of hydroxylation of benzoate in presence of Fe(II) at IBE of 1 relative to control; type: functional; settings: dose or concentration not given here
[7] = Inhibition of Fe(3+)-mediated ascorbate oxidation at IBE of 3 relative to control; type: functional; settings: dose or concentration not given here
[8] = Inhibition of Fe(3+)-mediated ascorbate oxidation at IBE of 0.1 relative to control; type: functional; settings: dose or concentration not given here
[9] = Inhibition of Fe(3+)-mediated ascorbate oxidation at IBE of 1 relative to control; type: functional; settings: dose or concentration not given here
[10] = Inhibition of hydroxylation of benzoate in presence of Fe(II) at IBE of 3 relative to control; type: functional; settings: dose or concentration not given here

Row | IC50 (SK-N-MC) [µM] | Structure (SMILES) | Activity [1] [%] | Activity [2] [%] | Activity [3] | also measured
1 | – | O=C(O)CN(CCN(CC(=O)O)CC(=O)O)CC(=O)O | 482 | 475 | 343% | Activity [4]: 309%
2 | – | COc1cccc2c1C(=O)c1c(O)c3c(c(O)c1C2=O)C[C@@](O)(C(=O)CO)C[C@@H]3O[C@H]1C[C@H](N)[C@H](O)[C@H](C)O1 | – | – | – | Activity (Nucleic Acid): 36%
3 | 0.01 | CN(C)C(=S)NN=C(c1ccccn1)c1ccccn1 | 406 | 439 | Active | Activity [5]: Active
4 | 8.58 | CC(=O)N(O)CCCCCNC(=O)CCC(=O)N(O)CCCCCNC(=O)CCC(=O)N(O)CCCCCN [DEFEROXAMINE] | – | – | – | inhibition [6]: 56%; inhibition [7]: 59%; inhibition [8]: 79%; inhibition [9]: 60%; inhibition [10]: 56%
